“Also recorded” adds a separate entry of the source.
Legend:
[1] = test system: tyrosine hydroxylase (TH); test: Midbrain tyrosine hydroxylase expression by qPCR after administration to mice; type: in vivo, mouse; conditions: wt mice, single IP 10 mg/kg, within 4 hours
Description: (§1) To assess the neuroprotective effect of compound 3, this compound was dosed to wt mice intraperitoneally (IP) at 10 mg/kg injections of compound 3 in Ethanol:PG:Saline 10:30:60. After 2 h and 4 h animals (n=3 per time point) were sacrificed, and their brains obtained. After extraction c-jun and tyrosine hydroxylase (TH) levels in brain extract were determined by qPCR (FIG. 1E, 1F).
Given the role of Nurr1:RXRα activation in the transcriptional regulation of DA biosynthesis genes, we tested whether compound 3 could increase DA levels in wt and ASYN transgenic mice (Tofaris et al. J. Neurosci. 26:3942-3950, 2006), which display reduced striatal DA levels after reaching adulthood. […] Aiming to model PD based on human genetic data, we also tested whether compound 3 could increase DA levels in ASYN transgenic mice. A single IP injection of compound 3 (10 mg/kg) was able increase striatal DA (t test p=0.01069) and DA metabolite levels in ASYN transgenics as well (FIG. 75C) in comparison to mice receiving vehicle.

[2] = test system: Nurr1 heterozygote 129/SV mice treated with MPTP; test: Neuroprotection against MPTP in Nurr1 heterozygote 129/SV mice; type: in vivo, mouse; conditions: Nurr1 heterozygote (Nurr1+/−) 129/SV mice
Description: (§2) 20 mg/kg MPTP injections were administered 4 times at the zero day of treatment, spaced 2 hours apart. 7 days after the MPTP injections there was approximately an 80% reduction in striatal projections and 40%-50% dopaminergic neuron death in the SN.

striatum 5HT levels = test: Striatal 5-HT and 5-HIAA levels by HPLC-ECD; type: in vivo, mouse; conditions: C57/BL6 mice, IP 20 mg/kg, 4 h post injection
Description: We measured striatal 5-HT levels, and we detected 5-HT and 5-HIAA in wild type C57/BL6 mice. 4 hours after dosing animals were killed by cervical dislocation, brains were removed, and the striata were dissected on ice. The samples were immediately frozen and stored at −80° C. until use. The tissues were processed for the analysis by high performance liquid chromatography (HPLC) with an electrochemical detector (ECD) (Emmanouil et al., 2006). The dissected tissues were weighed, homogenized, and deproteinized in 0.2 N perchloric acid solution containing 7.9 mM Na2S2O5 and 1.3 mM Na2EDTA. The homogenate was centrifuged at 37,000×g for 30 minutes, and the supernatant was stored at −80° C. until assayed. A reverse-phase ion-pair chromatography was used in all analyses, and the mobile phase consisted of an acetonitrile-50 mM phosphate buffer at pH 3.0, containing 5-octylsulfate sodium salt (300 mg/L) as the ion-pair reagent and (20 mg/L) Na2EDTA. Reference standards were prepared in 0.2 N perchloric acid solution containing 7.9 mM Na2S2O5 and 1.3 mM Na2EDTA. Samples were quantified by comparison of the areas under the peaks with those of reference standards using HPLC software (Chromatography Station for Windows™, Watrex International Inc., San Francisco, Calif.) (FIG. 3C).

c-jun = test: Midbrain c-jun expression by qPCR after administration to mice; type: in vivo, mouse; conditions: IP compound 3, qPCR 2 hours after administration
Description: FIGS. 69A-69C show the brain penetration, half-life, and c-jun transcriptional activation of compound 3. […] Mice (n=5) were sacrificed 1, 2, 4, 8 and 24 hours after IP administration and brains were dissected 1, 2, 4, 8 and 24 hours post administration. The concentrations of the parent compound in plasma and brain were determined by LC/MSMS.
as §1

[3] = target: Nur77GAL4:RXRαVP16 heterodimers (Homo sapiens (Human), UniProt P19793); test: GAL4/VP16 chimera specificity luciferase assay in SHSY-5Y; type: cell-based; conditions: GAL4-responsive luciferase reporter
Chain of Nur77GAL4:RXRαVP16 heterodimers (P19793 whole entry, looked up, the tested form may be a part): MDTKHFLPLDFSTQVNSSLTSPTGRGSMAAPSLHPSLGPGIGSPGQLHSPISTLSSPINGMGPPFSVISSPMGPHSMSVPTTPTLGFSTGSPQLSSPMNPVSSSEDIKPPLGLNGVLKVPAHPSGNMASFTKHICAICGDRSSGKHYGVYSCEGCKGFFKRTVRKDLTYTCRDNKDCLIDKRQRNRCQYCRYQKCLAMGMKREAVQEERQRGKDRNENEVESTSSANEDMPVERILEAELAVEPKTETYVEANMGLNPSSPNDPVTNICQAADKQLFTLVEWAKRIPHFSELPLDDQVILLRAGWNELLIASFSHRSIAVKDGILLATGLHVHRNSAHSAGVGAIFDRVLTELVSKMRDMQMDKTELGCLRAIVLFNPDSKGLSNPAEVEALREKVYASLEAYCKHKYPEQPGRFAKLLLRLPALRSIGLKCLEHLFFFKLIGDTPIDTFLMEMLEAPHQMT
Chain of Nur77GAL4:RXRαVP16 heterodimers (P22736 whole entry partner, looked up, the tested form may be a part): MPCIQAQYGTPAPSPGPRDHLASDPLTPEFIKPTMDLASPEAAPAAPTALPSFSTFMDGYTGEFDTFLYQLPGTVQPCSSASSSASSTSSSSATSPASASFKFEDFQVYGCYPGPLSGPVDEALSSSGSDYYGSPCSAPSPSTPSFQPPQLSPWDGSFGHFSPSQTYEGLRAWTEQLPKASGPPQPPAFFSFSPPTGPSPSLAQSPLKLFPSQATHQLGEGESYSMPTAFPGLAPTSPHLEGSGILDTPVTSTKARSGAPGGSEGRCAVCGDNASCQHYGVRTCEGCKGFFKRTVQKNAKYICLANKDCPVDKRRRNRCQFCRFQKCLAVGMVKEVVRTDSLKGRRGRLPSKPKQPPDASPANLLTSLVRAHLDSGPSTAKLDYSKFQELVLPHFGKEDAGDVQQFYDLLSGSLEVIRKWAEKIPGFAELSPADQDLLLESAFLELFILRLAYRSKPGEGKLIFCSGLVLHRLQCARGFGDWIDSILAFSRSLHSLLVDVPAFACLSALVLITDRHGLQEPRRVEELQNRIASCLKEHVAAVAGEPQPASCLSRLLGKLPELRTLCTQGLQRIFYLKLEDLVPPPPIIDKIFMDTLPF
Excerpt: To test off-target effects of compound 3 on complexes aside from Nurr1:RXRα heterodimers, we fused the ligand binding domains of Nurr1, RXRα and a variety of related nuclear receptors to GAL4 DNA-binding domain to create chimeric proteins, while the ligand-binding domain of RXRα was also fused with VP16. These molecular chimeras were co-transfected in pairs with the RXRα:VP16 along with a GAL4-responsive luciferase reporter in SHSY-5Y, which were stimulated with compound 3. […] The above experiments indicate the high degree of selectivity of compound 3 and point to its neuroprotective potential.

AAV-ASYN injected mice = test: Neuroprotection in the AAV-ASYN mouse model; type: in vivo; conditions: 10 mg/kg every 12 h for 2 weeks, vs vehicle
Description: Because the predictive validity of toxin-based mouse PD models for neuroprotection in humans is questionable, we proceeded to test the effect of compound 3 in a mouse model, where AAV viruses overexpressing wt alpha-synuclein (AAV-ASYN) under the chicken beta-actin promoter were unilaterally injected, combined with contralateral injections of (AAV-GFP). The same compound 3 (10 mg/kg every 12 h for 2 weeks) or vehicle treatment regimen was followed as in the toxin models.

[4] = test system: wild type 129/SV mice treated with MPTP; test: Neuroprotection against MPTP in wild type 129/SV mice; type: in vivo, mouse
Description: as §2

[5] = Plasma and brain concentrations by LC-MS/MS after IP administration to mice; type: in vivo, mouse; conditions: mouse, in vivo, ip
Description: FIGS. 68A and 68B show the pharmacokinetic profile of XCT in blood plasma and in the brain of mice injected with this compound. […] Serial tail bleeds (n=3) were used for detection of the compound in plasma 1 and 2 hours after IP administration. Similarly, mice (n=3) were sacrificed 1 and 2 hours after IP administration and brains were dissected. The concentrations of the parent compound in plasma and brain were determined by LC-MS/MS.
The concentrations of the parent compound in plasma and brain were determined by LC/MSMS.
XCT0135908 was administered to mice to test its bioactivity.

Nurr1:RXRα heterodimer = Nurr1:RXRα heterodimer (Homo sapiens (Human), UniProt P19793); test: Nurr1:RXRα-dependent luciferase reporter (DR5-TK-Luc) transactivation assay; type: cell-based; conditions: SHSY-5Y, luciferase
Chain of Nurr1:RXRα heterodimer (P19793 whole entry): as the sequence (P19793 whole entry, looked up, the tested form may be a part) above
Chain of Nurr1:RXRα heterodimer (P43354 whole entry partner): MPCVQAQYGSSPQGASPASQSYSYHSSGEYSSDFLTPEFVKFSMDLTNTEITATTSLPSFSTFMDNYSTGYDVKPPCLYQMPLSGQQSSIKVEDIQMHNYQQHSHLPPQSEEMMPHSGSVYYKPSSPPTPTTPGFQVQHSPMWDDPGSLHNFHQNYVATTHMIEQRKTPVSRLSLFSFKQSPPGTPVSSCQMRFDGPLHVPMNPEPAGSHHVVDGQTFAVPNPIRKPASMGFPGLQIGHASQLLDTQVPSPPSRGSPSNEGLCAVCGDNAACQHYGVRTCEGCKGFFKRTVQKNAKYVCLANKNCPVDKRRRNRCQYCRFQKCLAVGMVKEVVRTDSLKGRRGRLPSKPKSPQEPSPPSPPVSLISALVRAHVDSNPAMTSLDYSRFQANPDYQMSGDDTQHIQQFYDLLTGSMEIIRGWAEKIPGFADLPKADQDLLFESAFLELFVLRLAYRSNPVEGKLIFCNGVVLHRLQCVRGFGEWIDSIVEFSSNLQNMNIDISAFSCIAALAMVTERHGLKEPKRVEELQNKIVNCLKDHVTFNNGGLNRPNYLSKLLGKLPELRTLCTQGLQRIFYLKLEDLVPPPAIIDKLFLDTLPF
Description: The in vitro transactivation assay determined the capacity of the compounds of the invention to activate the Nurr1:RXR heterodimers. Naive SHSY-5Y cells were transiently co-transfected, using Lipofectamine 2000 (Invitrogen), with a plasmid expressing the human receptor Nurr1, a plasmid expressing the RXR human receptor (RXRα or RXRγ receptor) and a reporter plasmid DR5-TK-Luc. […] After incubation overnight, the expression of luciferase was measured (FIG. 1A).

Rat cortical neurons = test: Apoptosis of cortical neurons transfected with LRRK2-G2019S, DAPI staining; type: cell-based; conditions: rat cortical neurons co-transfected with CMV-GFP and LRRK2-G2019S
Excerpt: We examined the neuroprotective capability of Nurr1:RXRα heterodimer activation in SHSY-5Y cells where death was induced by either the oxidative stress related H2O2 or the mitochondria complex I inhibitor MPP+ (1-methyl-4-phenylpyridinium) (FIG. 72B). […] The protection conferred by compound 3 was Nurr1-dependent, since it was abrogated by knocking-down endogenous Nurr1 mRNA (FIGS. 1E and 72D). The neuroprotective effects of compound 3 extend to damage induced by the PD-associated mutation G2019S in the Leucine-Rich Repeat Kinase 2 (LRRK2) gene, the most common genetic defect associated with clinical PD (Tofaris et al. J. Neurosci. 26:3942-3950, 2006). Rat cortical neurons, co-transfected with CMV-GFP for identification, and CMVLRRK2-G2019S cDNAs show increased apoptosis as assessed by DAPI staining, compared to control neurons co-transfected with a LRRK2 wt cDNA.

C=CCc1c(N(C)c2ccc(C(=O)O)cc2)nc(-c2ccccc2)nc1C(F)(F)F [Example 3, 4-((5-allyl-2-phenyl-6-(trifluoromethyl)pyrimidin-4-yl)(methyl)amino)benzoic acid]
TH gene expression in the midbrain [1]: increased | neuroprotection against MPTP toxicity (surviving neuronal bodies) [2]: did not lead to a statistically significant increase; also recorded: abolished | striatum 5HT levels and 5HT metabolite 5HIAA levels (striatum 5HT levels): increased | midbrain c-jun expression (c-jun): increased | activation of Nur77GAL4:RXRαVP16 heterodimers [3]: partially activated | number of NeuN(+) midbrain neurons (AAV-ASYN injected mice): increased | increase of TH(+) midbrain neurons (AAV-ASYN injected mice; listed as Compound 3): 48% | increase of TH(+) midbrain neurons (AAV-ASYN injected mice; listed as compound 3): about 47% | neuroprotection against MPTP toxicity ([4]; 129sv wt mice): equally effective | increase in number of surviving neuronal bodies ([4]; wild type 129/SV, MPTP, IP 10 mg/kg every 12 hours for 8 days): 33.5% | brain penetration [5]: reaching the brain | half-life ([5]; 1 mg/kg): ~2 h | activation of Nurr1:RXRα heterodimers (Nurr1:RXRα heterodimer): activated | apoptosis induced by LRRK2-G2019S (Rat cortical neurons): reduced apoptosis to control levels
